The values that follow come from US5843941A, “Ras farnesyl transferase inhibitors” (Genentech, Inc., priority 1994, dated 1998).

The target of this test is CAAX farnesyltransferase (Rattus norvegicus, UniProt Q02293+Q04631). Description: In vitro inhibition of CAAX farnesyltransferase. Also on record: purified to homogeneity from rat brain homogenates; from tissue; host or cells: rat brain; alternatively recombinant enzyme from a baculovirus expression system. Type of test: biochemical. The note with it: Table D. As to the method:
All compounds were tested for in vitro inhibition of CAAX protein farnesyltransferase. […] Alternatively, recombinant CAAX protein farnesyltransferase was also used in this assay. […] Seventy-two hrs after infection, the cells were harvested and disrupted and the enzyme isolated by chromatography on Q-Sepharose.
After incubation for 30 min at 37° C., the amount of [3H]famesyl group transferred to p21H-ras was measured by precipitation with SDS/trichloroacetic acid, filtration onto nitrocellulose, and scintillation counting.
Structures of the compounds tested are reproduced below. Compound numbers also refer to example numbers above.

[1] abbreviates: diastereomer A, read-out: EC50 (μM) "A".
[2] abbreviates: diastereomer B, read-out: EC50 (μM) "B".

Each structure is given as a SMILES string. Read-outs that look alike come from different tables or passages of the source.

Sequence of CAAX farnesyltransferase (Q02293 whole entry, one chain of several): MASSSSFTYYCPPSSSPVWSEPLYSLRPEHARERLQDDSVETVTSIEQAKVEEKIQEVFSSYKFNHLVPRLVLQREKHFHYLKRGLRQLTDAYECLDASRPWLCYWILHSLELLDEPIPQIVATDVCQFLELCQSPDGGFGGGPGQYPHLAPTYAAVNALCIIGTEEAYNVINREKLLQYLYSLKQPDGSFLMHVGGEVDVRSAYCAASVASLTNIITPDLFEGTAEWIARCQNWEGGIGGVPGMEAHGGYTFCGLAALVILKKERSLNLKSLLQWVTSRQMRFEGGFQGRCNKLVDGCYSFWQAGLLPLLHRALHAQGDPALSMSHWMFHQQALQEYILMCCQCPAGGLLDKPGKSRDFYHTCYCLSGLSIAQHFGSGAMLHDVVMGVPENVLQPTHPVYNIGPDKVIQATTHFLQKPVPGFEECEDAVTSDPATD

One may read the EC50 as the concentration giving half of the maximal effect. For `CN(CC(=O)O)C(=O)CN1C(=O)C(N(C)C(=O)[C@@H](N)CS)N=C(c2ccccc2)c2ccccc21` (stereo partly shown) [compound 65, N-[[3-[(2-amino-3-mercapto-1-oxopropyl)methylamino]-2,3-dihydro-2-oxo-5-phenyl-1H-1,4-benzodiazepin-1-yl]acetyl]-(N-methyl)-glycine], the EC50 reads like this: under setting [1], greater than 3 µM; under setting [2], 0.0038 µM. The matching figures for `COC(=O)c1cccc(CN2C(=O)C(N(C)C(=O)C(N)CS)N=C(c3ccccc3)c3ccccc32)c1` (stereo not shown) [compound 94, N-[[3-[(2-amino-3-mercapto-1-oxopropyl)methylamino]-2,3-dihydro-2-oxo-5-phenyl-1H-1,4-benzodiazepin-1-yl]methyl]-3-carboxymethylbenzene]: 0.82 µM and 0.0042 µM. Taken in the same sequence, the figures for `CN(C(=O)[C@@H](N)CS)C1N=C(c2ccccc2)c2ccccc2N(CC(=O)N[C@@H](CS)C(=O)O)C1=O` (stereo partly drawn) [compound 44, N-[[3-[(2-Amino-3-mercapto-1-oxopropyl)methylamino]-2,3-dihydro-2-oxo-5phenyl-1H-1,4-benzodiazepin-1-yl]acetyl]-L-cysteine] were 3 µM and 0.0045 µM. For the compound `CN(C(=O)[C@@H](N)CS)C1N=C(c2ccccc2)c2cc(Cl)ccc2N(CC(=O)N[C@H](C(=O)O)C2CCCCC2)C1=O` (stereo partly drawn) [compound 71, N-[[3-[(2-amino-3-mercapto-1-oxopropyl)methylamino]-2,3-dihydro-2-oxo-5-phenyl-7-chloro-1H-1,4-benzodiazepin-1-yl]acetyl]-L-(α-cyclohexyl)-glycine], the EC50 is 0.1 µM under setting [1] and 0.0007 µM under setting [2]. Taken in the same sequence, the figures for `CN(C(=O)[C@@H](N)CS)C1N=C(c2ccccc2)c2ccccc2N(CC(=O)N[C@@H](CC2CCCCC2)C(=O)O)C1=O` (stereo partly drawn) [compound 57, N-[[3-[(2-amino-3-mercapto-1-oxopropyl)methylamino]-2,3-dihydro-2-oxo-5-phenyl-1H-1,4-benzodiazepin-1-yl]acetyl]-(β-cyclohexyl)-L-alanine] were 2 µM and 0.0015 µM. The matching figures for `CN(C(=O)[C@@H](N)CS)C1N=C(c2ccccc2)c2cc(Cl)ccc2N(CC(=O)N[C@@H](Cc2ccccc2)C(N)=O)C1=O` (stereo partly drawn) [compound 69, N-[[3-[(2-amino-3-mercapto-1-oxopropyl)methylamino]-2,3-dihydro-2-oxo-5phenyl-7-chloro-1H-1,4-benzodiazepin-1-yl]acetyl]-L-phenylalanine amide]: 1.5 µM and 0.0036 µM. `CSCC[C@H](NC(=O)CN1C(=O)C(N(C)C(=O)[C@@H](N)CS)C=C(c2ccccc2)c2cc(Cl)ccc21)C(=O)O` (stereo partly drawn) [compound 83, N-[[3-[(2-amino-3-mercapto-1-oxopropyl)methylamino]-2,3-dihydro-2-oxo-5-phenyl-7-chloro-1H-1,4-benzazepin-1-yl]acetyl]-L-methionine]: the EC50 under setting [2] is 0.0007 µM.

In the case of `CN(C(=O)[C@@H](N)CS)C1N=C(c2ccccc2)c2cc(Cl)ccc2N(CC(=O)N[C@@H](Cc2ccccc2)C(=O)O)C1=O` (stereo partly shown) [compound 68], the EC50 by setting is: under setting [1], 0.14 µM; under setting [2], 0.0016 µM. For `CN(C(=O)[C@@H](N)CS)C1N=C(c2ccccc2)c2ccccc2N(CC(=O)N[C@H](C(=O)O)C2CCCCC2)C1=O` (stereo partly drawn) [compound 58, N-[[3-[(2-amino-3-mercapto-1-oxopropyl)methylamino]-2,3-dihydro-2-oxo-5-phenyl-1H-1,4-benzodiazepin-1-yl]acetyl]-(α-cyclohexyl)-glycine], the EC50 runs as follows: under setting [1], 1.1 µM; under setting [2], 0.0006 µM. Taken in the same sequence, the figures for `CSCC[C@H](NC(=O)CN1C(=O)C(N(C)C(=O)[C@@H](N)CS)C=C(c2ccccc2Cl)c2cc(Cl)ccc21)C(=O)O` (stereo partly shown) [compound 92] were 0.001 µM and 0.001 µM. Consider `CSCC[C@H](NC(=O)CN1C(=O)C(N(C)C(=O)[C@@H](N)CO)N=C(c2ccccc2)c2ccccc21)C(=O)O` (stereo partly drawn) [compound 45, N-[[3-[(2-amino-3-hydroxy-1-oxopropyl)methylamino]-2,3-dihydro-2-oxo-5-phenyl-1H-1,4-benzodiazepin-1-yl]acetyl]-L-methionine], for which the EC50 under setting [1] was greater than 10 µM and the EC50 under setting [2] was greater than 10 µM. Regarding `CN(C(=O)[C@@H](N)CS)C1N=C(c2ccccc2)c2ccccc2N(CC(=O)N[C@@H](Cc2ccc(O)cc2)C(=O)O)C1=O` (stereo partly drawn) [compound 54, N-[[3-[(2-amino-3-mercapto-1-oxopropyl)methylamino]-2,3-dihydro-2-oxo-5-phenyl-1H-1,4-benzodiazepin-1-yl]acetyl]-L-tyrosine], the EC50 stood at 1.5 µM under setting [1] and 0.004 µM under setting [2].

Regarding `CN(C(=O)[C@@H](N)CS)C1N=C(c2ccccc2)c2cc(Cl)ccc2N(CC(=O)N[C@H](C(N)=O)C2CCCCC2)C1=O` (stereo partly drawn) [compound 72, N-[[3-[(2-amino-3-mercapto-1-oxopropyl)methylamino]-2,3-dihydro-2-oxo-5-phenyl-7-chloro-1H-1,4-benzodiazepin-1-yl]acetyl]-L-(α-cyclohexyl)-glycine amide], the EC50 reads like this: under setting [1], 0.6 µM; under setting [2], 0.0017 µM. Taken in the same sequence, the figures for `Cc1ccc(CN2C(=O)C(N(C)C(=O)[C@@H](N)CS)N=C(c3ccccc3)c3cc(Cl)ccc32)cc1` (stereo partly shown) [compound 104, N-[[3-[(2-amino-3-mercapto-1-oxopropyl)methylamino]-2,3-dihydro-2-oxo-5-phenyl-7-chloro-1H-1,4-benzodiazepin-1-yl]methyl]-4-methylbenzene] were 0.0048 µM and 0.0048 µM. The matching figures for `CSCC[C@H](NC(=O)CN1C(=O)C(N(C)C(=O)[C@@H](N)CS)C=C(c2ccccc2F)c2cc(Cl)ccc21)C(=O)O` (stereo partly drawn) [compound 80, N-[[3-[(2-amino-3-mercapto-1-oxopropyl)methylamino]-2,3-dihydro-2-oxo-5-(2'-fluorophenyl)-7-chloro-1H-1,4-benzazepin-1-yl]acetyl]-L-methionine]: 0.0003 µM and 0.0003 µM.

For the compound `CC(C)[C@H](NC(=O)CN1C(=O)C(N(C)C(=O)[C@@H](N)CS)N=C(c2ccccc2)c2ccccc21)C(=O)O` (stereo partly drawn) [compound 50, N-[[3-[(2-amino-3-mercapto-1-oxopropyl)methylamino]-2,3-dihydro-2-oxo-5-phenyl-1H-1,4benzodiazepin-1-yl]acetyl]-L-valine], the EC50 under setting [1] was greater than 3 µM and the EC50 under setting [2] worked out at 0.0008 µM. In the case of `COC(=O)c1cccc(CN2C(=O)C(N(C)C(=O)[C@@H](N)CS)N=C(c3ccccc3)c3cc(Cl)ccc32)c1` (stereo partly shown) [compound 97, N-[[3-[(2-amino-3-mercapto-1-oxopropyl)methylamino]-2,3-dihydro-2-oxo-5-phenyl-7-chloro-1H-1,4-benzodiazepin-1-yl]methyl]-3-carboxymethylbenzene], the EC50 under setting [2] amounted to 0.0003 µM. `CN(C(=O)[C@@H](N)CS)C1N=C(c2ccccc2)c2cc(Cl)ccc2N(Cc2cccc(C(F)(F)F)c2)C1=O` (stereo partly shown) [compound 103, N-[[3-[(2-amino-3-mercapto-1-oxopropyl)methylamino]-2,3-dihydro-2-oxo-5-phenyl-7-chloro-1H-1,4-benzodiazepin-1-yl]methyl]-3-trifluoromethylbenzene]: the EC50 by setting is: under setting [1], 0.0074 µM; under setting [2], 0.0074 µM.
